Measured values taken from ChEMBL document CHEMBL1821559, “Grassypeptolides F and G, cyanobacterial peptides from Lyngbya majuscula” (J Nat Prod, 2011).
Calls of active or inactive are those of the source. No cut-off for these calls is given here.

System: HEK-293T
Assay: Cytotoxicity against AP1 expressing HEK293T cells coexpressing beta-lactamase pre-incubated 1 hr before TPA addition measured 18 hrs post TPA challenge by fluorimetric assay
Format: functional, cell-based
Conditions: Homo sapiens

SMILES	Activity
CC(C)[C@H]1C(=O)N2CCC[C@H]2C(=O)N(C)[C@H](Cc2ccccc2)C2=N[C@@H](CS2)C(=O)N[C@H](C)C2=N[C@@H](CS2)C(=O)N(C)[C@H](Cc2ccccc2)C(=O)N[C@H](C(C)C)C(=O)N[C@H](C)[C@@H](C)C(=O)O[C@@H](Cc2ccccc2)C(=O)N1C	Active
CC[C@H]1NC(=O)[C@@H]2CSC(=N2)[C@@H](Cc2ccccc2)N(C)C(=O)[C@@H]2CCCN2C(=O)[C@H](C(C)C)N(C)C(=O)[C@H](Cc2ccccc2)OC(=O)[C@H](C)[C@@H](C)NC(=O)[C@@H](C(C)C)NC(=O)[C@@H](Cc2ccccc2)N(C)C(=O)[C@@H]2CSC1=N2	Active
